Measurements from US8957064B2, “Fused pyrimidines” (Bayer Intellectual Property GmbH, priority 2009, dated 2015).
pIC50: −log10 of the molar value.

Key:
[1] = target: His-tagged human recombinant kinase full-length Akt1 (Homo sapiens (Human), UniProt P31749); assay: Akt1 kinase assay (Akt1 TR-FRET assay, Biological Assay 1.0); assay type: biochemical; conditions: 10 μM ATP, 1 μM biotinylated peptide substrate, 60 min at 22° C.
Description: Biological Assay 1.0: Akt1 Kinase Assay
Akt1 inhibitory activity of compounds of the present invention may be quantified employing the Akt1 TR-FRET assay as described in the following paragraphs. His-tagged human recombinant kinase full-length Akt1 expressed in insect cells was purchased form Invitrogen (part number PV 3599). As substrate for the kinase reaction the biotinylated peptide biotin-Ahx-KKLNRTLSFAEPG (C-terminus in amide form) was used which can be purchased e.g. from the company Biosynthan GmbH (Berlin-Buch, Germany).
(§1) For the assay 50 nl of a 100 fold concentrated solution of the test compound in DMSO was pipetted into a black low volume 384 well microtiter plate (Greiner Bio-One, Frickenhausen, Germany), 2 μl of a solution of Akt1 in assay buffer [50 mM TRIS/HCl pH 7.5, 5 mM MgCl2, 1 mM dithiothreitol, 0.02% (v/v) Triton X-100 (Sigma)] were added and the mixture was incubated for 15 min at 22° C. to allow prebinding of the test compounds to the enzyme before the start of the kinase reaction. Then the kinase reaction was started by the addition of 3 μl of a solution of adenosine-tri-phosphate (ATP, 16.7 μM=>final conc. in the 5 μl assay volume is 10 μM) and substrate (1.67 μM=>final conc. in the 5 μl assay volume is 1 μM) in assay buffer and the resulting mixture was incubated for a reaction time of 60 min at 22° C. The concentration of Akt1 in the assay was adjusted depending of the activity of the enzyme lot and was chosen appropriate to have the assay in the linear range, typical enzyme concentrations were in the range of about 0.05 ng/μl (final conc. in the 5 μl assay volume).
(§2) The reaction was stopped by the addition of 5 μl of a solution of HTRF detection reagents (200 nM streptavidine-XL665 [Cisbio] and 1.5 nM anti-phosho-Serine antibody [Millipore, cat. #35-001] and 0.75 nM LANCE Eu-W 1024 labeled anti-mouse IgG antibody [Perkin Elmer]) in an aqueous EDTA-solution (100 mM EDTA, 0.1% (w/v) bovine serum albumin in 50 mM HEPES/NaOH pH 7.5).
(§3) The resulting mixture was incubated 1 h at 22° C. to allow the binding of the biotinylated phosphorylated peptide to the streptavidine-XL665 and the antibodies. Subsequently the amount of phosphorylated substrate was evaluated by measurement of the resonance energy transfer from the anti-mouse-IgG-Eu-Chelate to the streptavidine-XL665. Therefore, the fluorescence emissions at 620 nm and 665 nm after excitation at 350 nm was measured in a HTRF reader, e.g. a Rubystar (BMG Labtechnologies, Offenburg, Germany) or a Viewlux (Perkin-Elmer). The ratio of the emissions at 665 nm and at […] was taken as the measure for the amount of phosphorylated substrate. The data were normalised (enzyme reaction without inhibitor=0% inhibition, all other assay components but no enzyme=100% inhibition).

[2] = target: His-tagged human recombinant kinase full-length Akt2 activated by PDK1 (Homo sapiens (Human), UniProt P31751); assay: Akt2 kinase assay (Akt2 TR-FRET assay, Biological Assay 2.0); assay type: biochemical; conditions: 10 μM ATP, 1 μM biotinylated peptide substrate, 60 min at 22° C.
Description: Biological Assay 2.0: Akt2 Kinase Assay
Akt2 inhibitory activity of compounds of the present invention was quantified employing the Akt2 TR-FRET assay as described in the following paragraphs.
His-tagged human recombinant kinase full-length Akt2 expressed in insect cells and activated by PDK1 was purchased form Invitrogen (part number PV 3975). As substrate for the kinase reaction the biotinylated peptide biotin-Ahx-KKLNRTLSFAEPG (C-terminus in amide form) was used which can be purchased e.g. from the company Biosynthan GmbH (Berlin-Buch, Germany).
as §1, with “Akt2” for “Akt1”, “0.2” for “0.05”
as §2
as §3, with “TR-FRET” for “HTRF”

Chain of His-tagged human recombinant kinase full-length Akt2 activated by PDK1 (P31751 whole entry): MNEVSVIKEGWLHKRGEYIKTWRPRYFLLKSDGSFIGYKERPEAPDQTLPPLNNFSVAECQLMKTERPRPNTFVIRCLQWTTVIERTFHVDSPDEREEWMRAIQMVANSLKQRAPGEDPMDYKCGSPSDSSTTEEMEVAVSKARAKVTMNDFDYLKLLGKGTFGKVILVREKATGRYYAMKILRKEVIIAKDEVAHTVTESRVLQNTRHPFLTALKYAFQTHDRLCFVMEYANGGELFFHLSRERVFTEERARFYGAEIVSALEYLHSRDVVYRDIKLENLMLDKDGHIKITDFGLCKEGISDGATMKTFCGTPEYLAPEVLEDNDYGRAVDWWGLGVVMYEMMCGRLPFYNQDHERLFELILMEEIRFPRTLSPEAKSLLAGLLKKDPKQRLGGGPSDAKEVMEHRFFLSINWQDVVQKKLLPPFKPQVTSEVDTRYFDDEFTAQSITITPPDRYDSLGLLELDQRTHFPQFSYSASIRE
Chain of His-tagged human recombinant kinase full-length Akt1 (P31749 whole entry): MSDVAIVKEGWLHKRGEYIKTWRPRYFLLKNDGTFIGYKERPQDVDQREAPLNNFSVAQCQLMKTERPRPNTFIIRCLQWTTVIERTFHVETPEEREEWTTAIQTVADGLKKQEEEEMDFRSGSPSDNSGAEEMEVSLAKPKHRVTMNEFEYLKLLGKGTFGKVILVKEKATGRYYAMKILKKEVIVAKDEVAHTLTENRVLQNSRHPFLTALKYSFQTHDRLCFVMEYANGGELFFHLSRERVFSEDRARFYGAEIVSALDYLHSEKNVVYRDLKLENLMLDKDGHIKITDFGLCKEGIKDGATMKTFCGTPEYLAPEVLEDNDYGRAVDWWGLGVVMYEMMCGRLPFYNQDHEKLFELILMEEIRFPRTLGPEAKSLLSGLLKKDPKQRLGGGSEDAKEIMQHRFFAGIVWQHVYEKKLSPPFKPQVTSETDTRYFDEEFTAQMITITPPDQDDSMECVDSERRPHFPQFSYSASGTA

Compound	pIC50 [1]	pIC50 [2]
c1ccc(-c2cn3ccnc3nc2-c2ccc(CN3CC(c4nnc(-c5ccccn5)[nH]4)C3)cc2)cc1 [Example 1.0, 6-phenyl-7-(4-{[3-(5-pyridin-2-yl-1,2,4-triazol-3-yl)azetidin-1-yl]methyl}phenyl)imidazo[1,2-a]pyrimidine]	> 7.30	> 6.30
Fc1ccc(-c2cn3nc(C4CC4)nc3nc2-c2ccc(CN3CCC(c4n[nH]c(-c5ccccn5)n4)CC3)cc2)cc1 [Example 51.1, 2-cyclopropyl-6-(4-fluorophenyl)-5-{4-[4-(5-pyridine-2-yl-1H-[1,2,4]triazole-3-yl)-piperidine-1-ylmethyl]-phenyl}-[1,2,4]triazolo[1,5-a]pyrimidine]	7.49	7.16
Nc1ncnc2c1cnn2C1CCN(Cc2ccc(-c3nc4ccnn4cc3-c3ccccc3)cc2)CC1 [Example 19.0, 1-{1-[4-(6-phenyl-pyrazolo[1,5-a]pyrimidin-5-yl)-benzyl]-piperidin-4-yl}-1H-pyrazolo[3,4-d]pyrimidin-4-ylamine]	7.60	6.48
Fc1cnc2nc(-c3ccc(CN4CC(c5nnc(-c6ccccn6)[nH]5)C4)cc3)c(-c3ccccc3)cn12 [Example 4.0, 3-fluoro-6-phenyl-7-(4-{[3-(5-pyridin-2-yl-1,2,4-triazol-3-yl)azetidin-1-yl]methyl}phenyl)imidazo[1,2-a]pyrimidine]	> 7.30	> 7.30
Cc1nc2nc(-c3ccc(CN4CCC(c5n[nH]c(-c6cc(Cl)ccn6)n5)CC4)cc3)c(-c3ccc(F)cc3F)cn2n1 [Example 50.0, 5-(4-{4-[5-(4-chloropyridine-2-yl)-1H-[1,2,4]triazole-3-yl]-piperidine-1-ylmethyl}-phenyl) 6-(2,4-difluorophenyl)-2-methyl-[1,2,4]triazolo[1,5-a]pyrimidine]	7.66	7.01
CC(C)Nc1c(-c2ccccc2)c(-c2ccc(CN3CC(c4n[nH]c(-c5ccccn5)n4)C3)cc2)nc2nccn12 [Example 66.0, isopropyl-(6-phenyl-7-{4-{3-[5-(pyridine-2-yl)-1H-[1,2,4]triazole-3-yl)-azetidine-1-ylmethyl]-phenyl}-imidazo[1,2-a]pyrimidin-5-yl)-amine]	7.60	7.28
CC(C)c1nc2nc(-c3ccc(CN4CCC(c5cnc6ccccc6n5)CC4)cc3)c(-c3ccccc3)cn2n1 [Example 30.0, 2-{1-[4-(2-isopropyl-6-phenyl-[1,2,4]triazolo[1,5-a]pyrimidin-5-yl)benzyl]-piperidine-4-yl}-quinoxaline]	5.17	6.29
Cc1nc2nc(-c3ccc(CN4CC(c5nnc(-c6ccccn6)[nH]5)C4)cc3)c(-c3ccccc3)cn2n1 [Example 2.0, 2-methyl-6-phenyl-5-(4-{[3-(5-pyridin-2-yl-1,2,4-triazol-3-yl)azetidin-1-yl]methyl}phenyl)[1,2,4]triazolo[1,5-a]pyrimidine]	7.64	7.19
Cc1nc2nc(-c3ccc(CN4CCC(c5nc6ccc(C(F)(F)F)cc6[nH]5)CC4)cc3)c(-c3ccccc3)cn2n1 [Example 21.0, 2-methyl-6-phenyl-5-{4-[4-(6-trifluoromethyl-1H-benzimidazol-2-yl)-piperidin-1-ylmethyl]-phenyl}-[1,2,4]-triazolo[1,5-a]pyrimidine]	5.84	5.60
CC(C)c1nc2nc(-c3ccc(CN4CC(c5n[nH]c(-c6ccccn6)n5)C4)cc3)c(-c3ccccc3)cn2n1 [Example 29.0]	7.08	7.46
COc1nn2cc(-c3c(F)cccc3F)c(-c3ccc(CN4CCC(c5n[nH]c(-c6cccc(C)n6)n5)CC4)cc3)nc2c1CO [Example 63.2]	7.74	6.97
CSc1nc2nc(-c3ccc(CN4CCC(c5n[nH]c(-c6cnccn6)n5)CC4)cc3)c(-c3ccccc3)cn2n1 [Example 72.3, 2-methylsulfanyl-6-phenyl-5-{4-[4-(5-pyrazin-2-yl-1H-[1,2,4]triazol-3-yl)-piperidin-1-ylmethyl]-phenyl}-[1,2,4]triazolo[1,5-a]pyrimidine]	7.59	7.10
Cc1nc2nc(-c3ccc(CN4CCC(c5nc6ccncc6[nH]5)CC4)cc3)c(-c3ccccc3)cn2n1 [Example 14.0, 5-{4-[4-(3H-imidazo[4,5-c]pyridin-2-yl)-piperidin-1-ylmethyl]-phenyl}-2-methyl-6-phenyl-[1,2,4]triazolo[1,5-a]pyrimidine]	5.52	5.23
Cc1cccc(-c2nc(C3CN(Cc4ccc(-c5nc6nc(C)nn6cc5-c5ccc(F)cc5F)cc4)C3)n[nH]2)n1 [Example 35.0, 6-(2,4-difluorophenyl)-2-methyl-5-(4-{3-[5-(6-methyl-pyridine-2-yl)-1H-[1,2,4]triazole-3-yl]-azetidine-1-ylmethyl}-phenyl)-[1,2,4]triazolo[1,5-a]pyrimidine]	7.54	7.38
Fc1ccc(-c2cn3ccnc3nc2-c2ccc(CN3CCC(c4n[nH]c(-c5ccccn5)n4)CC3)cc2)cc1 [Example 52.1, 6-(4-fluorophenyl)-7-{4-[4-(5-pyridine-2-yl)-1H-[1,2,4]triazole-3-yl)-piperidine-1-ylmethyl)-phenyl}-imidazo[1,2-a]pyrimidine formiate]	8.10	7.49
CNc1c(-c2ccccc2)c(-c2ccc(CN3CC(c4n[nH]c(-c5ccccn5)n4)C3)cc2)nc2nccn12 [Example 58.0, methyl-(6-phenyl-7-{4-{3-[5-(pyridine-2-yl)-1H-[1,2,4]triazole-3-yl)-azetidine-1-ylmethyl]-phenyl}-imidazo[1,2-a]pyrimidin-5-yl)-amine]	7.52	6.32
CC(C)Nc1nc2nc(-c3ccc(CN4CC(c5n[nH]c(-c6ccccn6)n5)C4)cc3)c(-c3ccccc3)cn2n1 [Example 43.1, isopropyl-(6-phenyl-5-{4-[3-(5-pyridin-2-yl-1H-[1,2,4]triazol-3-yl)-azetidin-1-ylmethyl]-phenyl}-[1,2,4]triazolo[1,5-a]pyrimidin-2-yl)-amine]	7.66	7.96
Cc1cccc(-c2nc(C3CN(Cc4ccc(-c5nc6nc(-c7ccccn7)nn6c(NC(C)C)c5-c5ccccc5)cc4)C3)n[nH]2)n1 [Example 69.0, isopropyl-(6-phenyl-2-pyridine-2-yl-5-{4-[3-[5-(6-methylpyridine-2-yl)-1H-[1,2,4]triazole-3-yl)-azetidine-1-ylmethyl]-phenyl}-[1,2,4]triazolo[1,5-a]pyrimidin-7-yl)-amine]	7.85	7.80
